{
  "source": "patent US7265155B2",
  "about": "(NBS Pharmaceuticals, Inc., priority 1996, dated 2007)",
  "key": {"[1]": {"test_system": "Frings audiogenic seizure-susceptible mouse", "test": "Frings audiogenic seizure-susceptible mouse model of epilepsy", "format": "in vivo", "settings": "for anticonvulsant activity when administered orally: oral", "from_the_text": "One useful model is provided by the Frings audiogenic seizure-susceptible mouse, a model of reflex epilepsy. At the time of testing, individual mice are placed into a round Plexiglas chamber and exposed to a sound stimulus of 110 decibels, 11 kHz, for 20 seconds. Animals not displaying tonic hindlimb extensions were considered protected. In addition, the seizure score for each mouse can be recorded as: (1) running for less than 10 seconds; (2) running for greater than 10 seconds; (3) clonic activity of limbs and/or vibrissae; (4) forelimb extension/hindlimb flexion; and (5) hindlimb extension.\n(§1) The average seizure score can be calculated for each group of mice employed in the dose-response study. At each dose, mice are also tested on a rotarod for testing of motor impairment (toxicity). Testing for motor impairment on the rotarod involves placing a mouse for a three-minute trial period on a one-inch diameter rod rotating at six revolutions per minute. If the mouse falls off of the rotating rod three times within the three-minute time period, it is considered a toxic response."}, "Frings mouse": {"test_system": "Frings mouse", "test": "Rotarod motor impairment (toxicity) in the Frings mouse", "format": "in vivo", "settings": "for Number Showing Toxicity of Eight Mice Tested at 30 minutes / Number Showing Toxicity of Eight Mice Tested at 120 minutes: Table 5; for Number Showing Toxicity of Four Mice Tested at 30 minutes / Number Showing Toxicity of Four Mice Tested at 120 minutes: Table 4", "protocol": "as §1"}, "[2]": {"settings": "reported in the literature; cited from earlier work"}, "rat": {"test_system": "rat", "test": "Rotarod Test in the Rat", "format": "in vivo", "settings": "for Number of Rats Falling: ten rats per group", "protocol": "This is a test of neurological deficits using the method described by Dunham et al., J. Am. Pharm. Assoc. 46: 208-09 (1957). Rats or mice are placed on a rod rotating at a speed of eight turns per minute. The number of animals which drop off the rod before three minutes is counted and the drop-off times are recorded (maximum: 180 seconds). Ten rats are studied per group and the test is performed blind. The test compound is administered i.p. 60 minutes prior to testing. Diazepam, a benzodiazepine, is administered at 8 mg/kg, i.p., as the reference substance. A control group administered the vehicle is also included in the study."}, "[3]": {"settings": "in vivo; cited from earlier work"}, "[4]": {"settings": "4 mg/kg i.p. 60 minutes before test"}, "[5]": {"settings": "8 mg/kg i.p. 60 minutes before test"}},
  "note": "Marks after values point to notes of the source that are not given here.",
  "data": [
    {"smiles": "CC(C)C(C)C(N)=O", "note": "(stereo not shown) [2-methylisovaleramide]", "values": [
      {"measurement": "Number Protected of Four Mice Tested at 30 minutes", "setting": "[1]; Table 5, 30 mg/kg oral", "result": 0},
      {"measurement": "Number Protected of Four Mice Tested at 120 minutes", "setting": "[1]; Table 5, 30 mg/kg oral", "result": 0},
      {"measurement": "Number Protected of Four Mice Tested at 30 minutes", "setting": "[1]; Table 5, 100 mg/kg oral", "result": 1},
      {"measurement": "Number Protected of Four Mice Tested at 120 minutes", "setting": "[1]; Table 5, 100 mg/kg oral", "result": 0},
      {"measurement": "Number Protected of Four Mice Tested at 30 minutes", "setting": "[1]; Table 5, 300 mg/kg oral", "result": 4},
      {"measurement": "Number Protected of Four Mice Tested at 120 minutes", "setting": "[1]; Table 5, 300 mg/kg oral", "result": 1},
      {"measurement": "anticonvulsant activity when administered orally", "setting": "[1]", "result": "displayed anticonvulsant activity when administered orally"},
      {"measurement": "Number Showing Toxicity of Eight Mice Tested at 30 minutes", "setting": "Frings mouse; 30 mg/kg oral", "result": 0},
      {"measurement": "Number Showing Toxicity of Eight Mice Tested at 120 minutes", "setting": "Frings mouse; 30 mg/kg oral", "result": 0},
      {"measurement": "Number Showing Toxicity of Eight Mice Tested at 30 minutes", "setting": "Frings mouse; 100 mg/kg oral", "result": 0},
      {"measurement": "Number Showing Toxicity of Eight Mice Tested at 120 minutes", "setting": "Frings mouse; 100 mg/kg oral", "result": 0},
      {"measurement": "Number Showing Toxicity of Eight Mice Tested at 30 minutes", "setting": "Frings mouse; 300 mg/kg oral", "result": "2^a"},
      {"measurement": "Number Showing Toxicity of Eight Mice Tested at 120 minutes", "setting": "Frings mouse; 300 mg/kg oral", "result": 0},
      {"measurement": "signs of toxicity in the animals counted as toxic", "setting": "Frings mouse; Table 5 footnote, 300 mg/kg oral, 30 minutes", "result": "^ano definitive signs of toxicity such as sedation or ataxia, animals just fell off"}
    ]},
    {"smiles": "CC(C)CC(=O)O", "note": "[Isovaleric acid, isovaleric acid]", "values": [
      {"measurement": "anticonvulsant activity", "setting": "[2]", "result": "inactive as an anticonvulsant"}
    ]},
    {"smiles": "CN1C(=O)CN=C(c2ccccc2)c2cc(Cl)ccc21", "note": "[Diazepam, diazepam]", "values": [
      {"measurement": "Drop-Off Time % change from control", "setting": "rat; [4]", "result": "−59", "unit": "%"},
      {"measurement": "Drop-Off Time (sec) Mean ± S.E.M.", "setting": "rat; [4]", "result": "55.8 ± 20.6^d sec"},
      {"measurement": "Number of Rats Falling", "setting": "rat; [4]", "result": 9},
      {"measurement": "Drop-Off Time % change from control", "setting": "rat; [5]", "result": "−88", "unit": "%"},
      {"measurement": "Drop-Off Time (sec) Mean ± S.E.M.", "setting": "rat; [5]", "result": "16.3 ± 6.4^f sec"},
      {"measurement": "Number of Rats Falling", "setting": "rat; [5]", "result": "10+ ^e"},
      {"measurement": "rotarod performance in the rat", "setting": "rat; i.p. 60 minutes before test, isovaleramide 128, 256 and 512 mg/kg", "result": "dose-dependently decreased rotarod performance"}
    ]},
    {"smiles": "CC(C)CC(=O)NCC(N)=O", "note": "[N-(2-acetamido)isovaleramide]", "values": [
      {"measurement": "Number Protected of Four Mice Tested at 30 minutes", "setting": "[1]; Table 4, 30 mg/kg oral", "result": 0},
      {"measurement": "Number Protected of Four Mice Tested at 120 minutes", "setting": "[1]; Table 4, 30 mg/kg oral", "result": 0},
      {"measurement": "Number Protected of Four Mice Tested at 30 minutes", "setting": "[1]; Table 4, 100 mg/kg oral", "result": 0},
      {"measurement": "Number Protected of Four Mice Tested at 120 minutes", "setting": "[1]; Table 4, 100 mg/kg oral", "result": 0},
      {"measurement": "Number Protected of Four Mice Tested at 30 minutes", "setting": "[1]; Table 4, 300 mg/kg oral", "result": 0},
      {"measurement": "Number Protected of Four Mice Tested at 120 minutes", "setting": "[1]; Table 4, 300 mg/kg oral", "result": 0},
      {"measurement": "Number Protected of Four Mice Tested at 30 minutes", "setting": "[1]; Table 4, 1000 mg/kg oral", "result": 3},
      {"measurement": "Number Protected of Four Mice Tested at 120 minutes", "setting": "[1]; Table 4, 1000 mg/kg oral", "result": 4},
      {"measurement": "anticonvulsant activity when administered orally", "setting": "[1]", "result": "displayed anticonvulsant activity when administered orally"},
      {"measurement": "Number Showing Toxicity of Four Mice Tested at 30 minutes", "setting": "Frings mouse; 30 mg/kg oral", "result": 0},
      {"measurement": "Number Showing Toxicity of Four Mice Tested at 120 minutes", "setting": "Frings mouse; 30 mg/kg oral", "result": 0},
      {"measurement": "Number Showing Toxicity of Four Mice Tested at 30 minutes", "setting": "Frings mouse; 100 mg/kg oral", "result": 0},
      {"measurement": "Number Showing Toxicity of Four Mice Tested at 120 minutes", "setting": "Frings mouse; 100 mg/kg oral", "result": 0},
      {"measurement": "Number Showing Toxicity of Four Mice Tested at 30 minutes", "setting": "Frings mouse; 300 mg/kg oral", "result": 0},
      {"measurement": "Number Showing Toxicity of Four Mice Tested at 120 minutes", "setting": "Frings mouse; 300 mg/kg oral", "result": 0},
      {"measurement": "Number Showing Toxicity of Four Mice Tested at 30 minutes", "setting": "Frings mouse; 1000 mg/kg oral", "result": 1},
      {"measurement": "Number Showing Toxicity of Four Mice Tested at 120 minutes", "setting": "Frings mouse; 1000 mg/kg oral", "result": 0}
    ]},
    {"smiles": "CCN(CC)C(=O)CC(C)C", "note": "[N,N-Diethyl isovaleramide]", "values": [
      {"measurement": "CNS properties", "setting": "[3]", "result": "CNS stimulant (convulsant) properties"}
    ]}
  ]
}
